This note sets out measurements from US8466163B2 (Bionomics Limited, priority 2006, dated 2013).

Usually IC50 stands for the concentration at which inhibition is half-maximal.

Experiment [1] concerns tubulin. The experiment is described as follows: Tubulin polymerisation inhibitor (TPI) assay. Type of experiment: biochemical. The settings on record: concentration required to inhibit the extent of tubulin polymerisation by 50%.
In experiment [2] the test system is Activated human umbilical vein endothelial cells (HUVECs). As to the kind of experiment: Inhibition of proliferation of activated HUVEC cells. Type of experiment: cell-based. The settings on record: concentration required to inhibit proliferation by 50%, value falls within the range of concentrations given or >1000 nM.

Consider `COc1ccc(-c2oc3cc(OC)cnc3c2C(=O)c2cc(OC)c(OC)c(OC)c2)cc1` [Example 22, 6-methoxy-2-(4-methoxyphenyl)-3-(3,4,5-trimethoxybenzoyl)furo [3,2-b]pyridine], for which the IC50 in experiment [1] is < 4 µM; in experiment [2] (Homo sapiens, HUVEC), 0.1 to 1 µM.
In the case of `COc1ccc(-c2oc3nc(OC)ccc3c2-c2cc(OC)c(OC)c(OC)c2)cc1` [Example 21, 6-methoxy-2-(4-methoxyphenyl)-3-(3,4,5-trimethoxyphenyl)furo[2,3-b]pyridine], in experiment [1], the IC50 is > 40 µM.
With `COc1ccc(-c2oc3nc(OC)ccc3c2C(=O)c2cc(OC)c(OC)c(OC)c2)cc1` [Example 20, 6-methoxy-2-(4-methoxyphenyl)-3-(3,4,5-trimethoxybenzoyl)furo[2,3-b]pyridine], the IC50 was ~2 µM in experiment [1] and 0.1 to 1 µM in experiment [2] (Homo sapiens, HUVEC).
Regarding `COc1ccc(-c2oc3nc(OC)cnc3c2C(=O)c2cc(OC)c(OC)c(OC)c2)cc1` [Example 25, 3-methoxy-6-(4-methoxyphenyl)-7-(3,4,5-trimethoxybenzoyl)furo[2,3-b]pyrazine], the IC50 in experiment [1] was < 4 µM; in experiment [2] (Homo sapiens, HUVEC), 0.01 to 0.1 µM.
Take “6-(3-amino-4-methoxyphenyl)-5-(3-hydroxy-4,5-dimethoxyphenyl)furo[2,3-d]pyrimidin-2(1H)-one hydrochloride [Example 10]”: the IC50 in experiment [2] was > 1 µM.
As for `COc1ccc(-c2oc3c(Br)c(OC)cnc3c2C(=O)c2cc(OC)c(OC)c(OC)c2)cc1` [Example 28, 7-Bromo-6-methoxy-2-(4-methoxyphenyl)-3-(3,4,5-trimethoxybenzoyl)-furo[3,2-b]pyridine], in experiment [2] (Homo sapiens, HUVEC), the IC50 was in the range of 0.1 to 1 µM.
`COc1ccc(-c2c(-c3cc(OC)c(OC)c(OC)c3)oc3[nH]c(=O)ncc23)cc1` [Example 2, 6-(2-(3,4,5-trimethoxyphenyl))-5-(4-methoxyphenyl)furo[2,3-d]pyrimidin-2(1H)-one]: the IC50 lay within 4 to 10 µM in experiment [1] and 0.1 to 1 µM in experiment [2] (Homo sapiens, HUVEC).
In experiment [2] (Homo sapiens, HUVEC), `COc1ccc(-c2oc3[nH]c(=O)ccc3c2-c2cc(OC)c(OC)c(OC)c2)cc1` [Example 26, 2-(4-Methoxyphenyl)-3-(3,4,5-trimethoxyphenyl)furo[2,3-b]pyridin-6-one] gave an IC50 of 0.1 to 1 µM.
Still for that read-out and setting: under `COc1cc(C(=O)c2c(-c3cnn(C)c3)oc3c(=O)c(OC)c[nH]c23)cc(OC)c1OC` [Example 30, 6-Methoxy-2-(1-methyl-1H-pyrazol-4-yl)-3-(3,4,5-trimethoxybenzoyl)-4H-furo[3,2-b]pyridin-7-one] stands > 1 µM.
For the compound `COc1ccc(-c2oc3[nH]c(=O)ncc3c2-c2cc(OC)c(OC)c(OC)c2)c(O)c1O` [Example 8, 6-(2,3-Dihydroxy-4-methoxy-phenyl)-5-(3,4,5-trimethoxy-phenyl)-1H-furo[2,3-d]pyrimidin-2-one], in experiment [2] (Homo sapiens, HUVEC), the IC50 was > 1 µM.
Take `COc1ccc(-c2oc3c(cnc(=O)n3C)c2C(=O)c2cc(OC)c(OC)c(OC)c2)cc1` [Example 15]: the IC50 in experiment [1] was > 40 µM.
Still for that read-out and setting: as for `COc1ccc(-c2oc3[nH]c(=O)ncc3c2C(=O)c2cc(OC)c(OC)c(OC)c2)cc1` [Example 13], the figure is > 40 µM.
In experiment [2] (Homo sapiens, HUVEC), `COc1ccc(-c2oc3[nH]c(=O)ncc3c2-c2cc(OC)c(OC)c(OC)c2)cc1O` [Example 7, 6-(3-Hydroxy-4-methoxy-phenyl)-5-(3,4,5-trimethoxy-phenyl)-1H-furo[2,3-d]pyrimidinone] returned an IC50 of 0.01 to 0.1 µM.
Turning to `COc1cc(-c2c(-c3ccco3)oc3[nH]c(=O)ncc23)cc(OC)c1OC` [Example 3, 6-(2-furyl)-5-(3,4,5-trimethoxyphenyl)furo[2,3-d]pyrimidin-2(11)-one], the IC50 in experiment [2] (Homo sapiens, HUVEC) was > 1 µM.
With `COc1ccc(-c2oc3nc(Cl)ncc3c2-c2cc(OC)c(OC)c(OC)c2)cc1` [Example 16, 2-Chloro-6-(4-methoxyphenyl)-5-(3,4,5-trimethoxy-phenyl)-furo[2,3-d]pyrimidine], the IC50 in experiment [1] was in the range of 10 to 40 µM.
Take `COc1ccc(-c2oc3cc(OC)cnc3c2-c2cc(OC)c(OC)c(OC)c2)cc1` [Example 23, 6-methoxy-2-(4-methoxyphenyl)-3-(3,4,5-trimethoxyphenyl)furo[3,2-b]pyridine]: the IC50 in experiment [1] was ~10 µM; in experiment [2] (Homo sapiens, HUVEC), > 1 µM.
In the case of `COc1ccc(-c2oc3nc(OC)ncc3c2-c2cc(OC)c(OC)c(OC)c2)cc1` [Example 17, 2-Methoxy-6-(4-methoxyphenyl)-5-(3,4,5-trimethoxyphenyl)-furo[2,3-d]pyrimidine], the IC50 in experiment [1] is > 40 µM.
In experiment [2] (Homo sapiens, HUVEC), `COc1ccc(-c2oc3nc(OC)ncc3c2C(=O)c2cc(OC)c(OC)c(OC)c2)cc1` [Example 27] came in with an IC50 of 0.1 to 1 µM.
As for `COc1ccc(-c2oc3cc(OC)ncc3c2C(=O)c2cc(OC)c(OC)c(OC)c2)cc1` [Example 24, 6-methoxy-2-(4-methoxyphenyl)-3-(3,4,5-trimethoxybenzoyl)furo[3,2-c]pyridine], the IC50 in experiment [1] was < 4 µM; in experiment [2] (Homo sapiens, HUVEC), 0.1 to 1 µM.
In the same order, the values of `COc1ccc(-c2oc3[nH]c(=O)ncc3c2-c2cc(OC)c(OC)c(OC)c2)cc1` [Example 1] are 2 µM and 0.01 to 0.1 µM.
In the same order, the values of `COc1ccc(-c2sc3nc(OC)ncc3c2C(=O)c2cc(OC)c(OC)c(OC)c2)cc1` [Example 19, 2-Methoxy-6-(4-methoxyphenyl)-5-(3,4,5-trimethoxybenzoyl)-thiopheno[2,3-d]pyrimidine] are > 40 µM and > 1 µM.
Regarding `COc1ccc(-c2oc3[nH]c(=O)ncc3c2-c2cc(OC)c(OC)c(OC)c2)cn1` [Example 5, 6-(6-methoxypyridin-3-yl)-5-(3,4,5-trimethoxyphenyl)furo[2,3-d]pyrimidin-2(1H)-one], in experiment [2] (Homo sapiens, HUVEC), the IC50 fell in the range of 0.1 to 1 µM.
On the same count and under the same terms, under `COc1cc(-c2c(-c3ccc4c(ccn4C)c3)oc3[nH]c(=O)ncc23)cc(OC)c1OC` [Example 4, 6-(1-Methyl-1H-indol-5-yl)-5-(3,4,5-trimethoxy-phenyl)-1H-furo[2,3-d]pyrimidin-2-one] stands 0.001 to 0.01 µM.
Turning to `COc1ccc(-c2sc3nc(SC)ncc3c2C(=O)c2cc(OC)c(OC)c(OC)c2)cc1` [Example 18, 2-Thiomethoxy-6-(4-methoxyphenyl)-5-(3,4,5-trimethoxybenzoyl)-thiopheno [2,3-d]pyrimidine], the IC50 in experiment [1] is > 40 µM.
